Data from publication PMC117120 (BMC Biochemistry, 2002).
Positions count from the first letter of the chain named. Where “and” joins values, the source holds several entries; their conditions need not be identical. Equal entries are not always repeated.

Key:
[1] = target: T1, R146A mutant mouse 5-HT3ASR (Mus musculus, UniProt P23979, R147A); assay: biochemical
T1 sequence (P23979 24-483 isoform P23979-2 R147A): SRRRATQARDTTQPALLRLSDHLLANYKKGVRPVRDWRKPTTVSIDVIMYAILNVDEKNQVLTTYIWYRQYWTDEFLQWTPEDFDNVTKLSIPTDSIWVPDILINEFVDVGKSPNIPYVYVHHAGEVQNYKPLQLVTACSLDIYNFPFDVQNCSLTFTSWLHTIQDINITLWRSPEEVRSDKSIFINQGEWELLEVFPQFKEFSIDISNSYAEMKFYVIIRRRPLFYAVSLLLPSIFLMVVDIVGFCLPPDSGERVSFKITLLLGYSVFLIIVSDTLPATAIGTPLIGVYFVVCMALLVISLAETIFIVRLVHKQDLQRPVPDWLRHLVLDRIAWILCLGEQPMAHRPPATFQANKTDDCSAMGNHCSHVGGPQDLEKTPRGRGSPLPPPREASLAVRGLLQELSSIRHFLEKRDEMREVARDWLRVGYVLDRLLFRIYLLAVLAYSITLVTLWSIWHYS

[2] = target: T2, Y142A mutant mouse 5-HT3ASR (Mus musculus, UniProt P23979, Y143A); assay: Inhibition of [^3H]granisetron binding, Y142A receptor; settings: for relative increase in Ki, mutant vs wildtype: Y142A vs wildtype
T2 sequence (P23979 24-483 isoform P23979-2 Y143A): T1 sequence (P23979 24-483 isoform P23979-2 R147A) with Y120A, A124R

wildtype mouse 5-HT3ASR = target: T3, wildtype mouse 5-HT3ASR (Mus musculus, UniProt P23979); assay: biochemical
T3 sequence (P23979 24-483 isoform P23979-2 limits assumed): T1 sequence (P23979 24-483 isoform P23979-2 R147A) with A124R

[3] = target: T4, H145A mutant mouse 5-HT3ASR (Mus musculus, UniProt P23979, H146A); assay: biochemical
T4 sequence (P23979 24-483 isoform P23979-2 H146A): T1 sequence (P23979 24-483 isoform P23979-2 R147A) with H123A, A124R

[4] = target: T5, V143A mutant mouse 5-HT3ASR (Mus musculus, UniProt P23979, V144A); assay: biochemical
T5 sequence (P23979 24-483 isoform P23979-2 V144A): T1 sequence (P23979 24-483 isoform P23979-2 R147A) with V121A, A124R

[5] = target: T6, E148A mutant mouse 5-HT3ASR (Mus musculus, UniProt P23979, E149A); assay: biochemical
T6 sequence (P23979 24-483 isoform P23979-2 E149A): T1 sequence (P23979 24-483 isoform P23979-2 R147A) with A124R, E126A

Structure (SMILES)	Ki [1]	Ki [2]	relative increase in Ki, mutant vs wildtype [2]	Ki (wildtype mouse 5-HT3ASR)	Ki [3]	Ki [4]	Ki [5]
COc1cc2c3cc1Oc1cc(ccc1O)C[C@@H]1c4c(cc(OC)c(O)c4Oc4ccc(cc4)C[C@@H]3N(C)CC2)CC[N+]1(C)C [d-tc, d-tubocurarine]	29 ± 4.9 nM	39 ± 19 nM	6.5 ± 1.5 fold and 6.5 fold	6 ± 2.1 nM	19 ± 2.6 nM	22 ± 2.6 nM	14 ± 1.7 nM
c1ccc(Cn2c(N3CCNCC3)nc3ccccc32)cc1 [lerisetron]	2.3 ± 0.31 nM	130 ± 28 nM	160 ± 37 fold and 160 fold	0.8 ± 0.19 nM	0.42 ± 0.04 nM	1.5 ± 0.41 nM	2.8 ± 0.53 nM
